Key:
[1] = system: CaLo cells (HPV-18 positive cervical tumor line); experiment: Cell proliferation (crystal violet), dose-response, CaLo; conditions: 72 h
Protocol: (§1) Immortal and HPV negative cell line HaCaT cells was selected as control for both immortality status and HPV content. […] In order to evaluate the effect of the naphthoquine amino acid derivatives in immortal and tumorigenic cells with HPV positive and negative status we performed a dose-response analysis.
(§2) (A) HaCaT HPV negative cell line cells were treated with 6.25, 12.5, 25, 50, 100 and 200 μM of naphthoquinone amino acid derivatives to assay proliferation rate at 72 h post-treatment. (B) SiHa HPV 16 positive cancer cells were treated with 6.25, 12.5, 25, 50, 100 and 200 μM of naphthoquinone amino acid derivatives to assay proliferation rate at 72 h post-treatment. (C) CaLo HPV 18 positive cancer cells were treated with 6.25, 12.5, 25, 50, 100 and 200 μM of naphthoquinone amino acid derivatives to assay proliferation rate at 72 h post-treatment. […] Cells treated with 0.1% of DMSO were used as Control. * represents statistically significant p < 0.05 value.
(§3) Cell proliferation was quantified by violet crystal dye in 1X phosphate-buffered saline (PBS) (2.7 mM KCl, 1.8 mM KH2PO4, 136 mM NaCl, 10 mM Na2HPO4 pH 7.4). The treated cells were incubated in methanol for 15 min and washed two times with distilled water. Cells were dyed with 0.1% crystal violet and washed three times with water and finally violet crystal was recovered with 10% acid acetic to be analyzed in microplate reader Multiskan GO Spectrophotometer (Thermo Scientific™, Ratastie, Finland).

[2] = system: HaCaT cells (HPV negative non-tumorigenic immortal keratinocytes); experiment: Cell proliferation (crystal violet), dose-response, HaCaT; conditions: Homo sapiens, 72 h
Protocol: as §1, §2, §3

[3] = system: SiHa cells (HPV-16 positive cervical tumor line); experiment: Cell proliferation (crystal violet), dose-response, SiHa; conditions: Homo sapiens, 72 h
Protocol: as §1, §2, §3

[4] = Cyclic voltammetry in 0.1 M TBABF4/DMSO; conditions: for irreversible oxidation potential peak (positive potential region) / irreversible anodic peak (negative potential region): Figure 2, vs Ag/Ag+, 100 mV s^−1; for ipa: anodic peak current density; for ipa / Epa / ipc / Epc / E1/2 / ΔEp / |ipa/ipc|: TBABF4 0.1 M/DMSO, 100 mV/s; for Epa: anodic peak potential of redox reaction; for Epa / Epc: vs Ag/Ag+ pseudo-reference; for ipc: cathodic peak current density; for Epc: cathodic peak potential of redox reaction; for E1/2: half-wave potential, E1/2 = (Epa + Epc)/2, vs Ag/Ag+; for ΔEp: potential peak separation, ΔEp = Epc − Epa; for |ipa/ipc|: ratio of anodic to cathodic peak current (reversibility)
Protocol: Electrochemical studies of naphthoquinone–amino acids (3a–c) and chloride–naphthoquinone–amino acids (4a–c) derivatives were studied by cyclic voltammetry (CV) as previously reported [24]. Briefly, non-aqueous solutions of compounds 3a–c or 4a–c at a concentration of 5 mM were dissolved in dimethyl sulfoxide (DMSO, Sigma–Aldrich, St. Louis, MO, USA) containing 0.1 M tetrabutylammonium tetrafluoroborate (TBABF4, Sigma–Aldrich, St. Louis, MO, USA) as supporting electrolyte. Then, the non-aqueous solutions containing 3a–c or 4a–c were studied by CV in a three-electrode cell using a freshly polished glassy carbon disk electrode (GC) (0.07 cm^2, BASi, West Lafayette, IN, USA) as working electrode and a Pt wire (Alfa-Aesar, Tewksbury, MA, USA) as counter electrode. An Ag/Ag^+ electrode in 0.1 M TBABF4/DMSO was used as pseudo-reference electrode. A potential scan was performed from −2.0 V to 0.75 V vs. Ag/Ag^+ at 100 mV s^−1 in the cathodic direction in order to identify any electron transfer reaction associated to compounds 3a–c or 4a–c using a potentiostat/galvanostat PAR VersaStat 3 (Ametek, Inc. Berwyn, PA, USA). Furthermore, any redox reaction processes of 3a–c or 4a–c were further studied at a scan rate of 10, 25, 50, 100, 200, and 300 mV s^−1. As received TBABF4 and DMSO were used without further purification or drying processes. All the non-aqueous testing solutions were degassed for 30 min with high-purity N2 gas before cyclic voltammetry experiments.

SMILES	IC50 [1]	melting point	IC50 [2]	IC50 [3]	irreversible oxidation potential peak (positive potential region) [4]	ipa [4]	Epa [4]	ipc [4]	Epc [4]	E1/2 [4]	ΔEp [4]	|ipa/ipc| [4]	irreversible anodic peak (negative potential region) [4]
O=C1C=C(NC(Cc2ccc(O)cc2)C(=O)O)C(=O)c2ccccc21 (stereo not shown) [Compound 3a, 2-((1,4-dioxo-1,4-dihydronphthalen-2-yl)amino)-3-(4-hydroxyphenyl) propanoic acid]	81.1 µM	214 to 216 °C	61.6 µM	41 µM	higher than 0.5 V	0.28 mA cm^−2	−1.15 V	−0.30 mA cm^−2	−1.27 V	−1.21 V	0.13 V	0.95	
O=C1C(Cl)=C(NC(Cc2c[nH]c3ccccc23)C(=O)O)C(=O)c2ccccc21 (stereo not shown) [Compound 4c, 2-((3-chloro-1,4-dioxo-1,4-dihydronaphthalen-2-yl)amino)-3-(1H-indol-3-yl)propanoic acid]	2.7 µM		~0.331 µM	3.21 µM	0.46 V	0.23 mA cm^−2	−1.05 V	−0.27 mA cm^−2	−1.17 V	−1.11 V	0.12 V	0.85	−0.36 V
O=C1C(Cl)=C(NC(Cc2ccc(O)cc2)C(=O)O)C(=O)c2ccccc21 (stereo not shown) [Compound 4a, 2-((3-chloro-1,4-dioxo-1,4-dihydronaphthalen-2-yl)amino)-3-(4-hydroxyphenyl)propanoic acid]	7.03 µM		9.88 µM	6.83 µM	higher than 0.5 V	0.22 mA cm^−2	−1.04 V	−0.24 mA cm^−2	−1.15 V	−1.10 V	0.11 V	0.92	−0.33 V
CC(C)C(NC1=C(Cl)C(=O)c2ccccc2C1=O)C(=O)O (stereo not shown) [Compound 4b, 2-((3-chloro-1,4-dioxo-1,4-dihydronaphthalen-2-yl)amino)-3-methylbutanoic acid]	2.88 µM	54 to 56 °C	7.97 µM	11.3 µM	0.57 V	0.21 mA cm^−2	−1.05 V	−0.25 mA cm^−2	−1.19 V	−1.12 V	0.14 V	0.83	−0.36 V
CC(C)C(NC1=CC(=O)c2ccccc2C1=O)C(=O)O (stereo not shown) [Compound 3b, 2-((1,4-dioxo-1,4-dihydronaphthalen-2-yl)amino)-3-methylbutanoic acid]	57 µM	170 to 172 °C	55.3 µM	47.2 µM	0.60 V	0.28 mA cm^−2	−1.16 V	−0.30 mA cm^−2	−1.27 V	−1.21 V	0.12 V	0.95	−0.2 V
O=C1C=C(NC(Cc2c[nH]c3ccccc23)C(=O)O)C(=O)c2ccccc21 (stereo not shown) [Compound 3c, 2-((1,4-dioxo-1,4-dihidronaphthalen-2-yl)amino)-3-(1H-indol-3-yl)propanoic acid]	25.2 µM		40.8 µM	28.8 µM	0.45 V	0.26 mA cm^−2	−1.19 V	−0.27 mA cm^−2	−1.30 V	−1.24 V	0.11 V	0.95	
